Measured values published in patent publication US20060270591A1, “Androgen receptor coregulators” (priority 2002, published 2006).

Experiments:
[1] = molecular target: T1, AR N-terminus and AR C-terminus (Homo sapiens, UniProt P10275); test: Mammalian two-hybrid assay of AR N-C interaction in PC-3 cells; assay type: cell-based; conditions: DHT
T1 construct: AR DBD plus LBD (GST-AR-DL); expressed in transfected cells; host or cells: PC-3 cells (human prostate cancer line)
T1 sequence (P10275 555-920 limits assumed): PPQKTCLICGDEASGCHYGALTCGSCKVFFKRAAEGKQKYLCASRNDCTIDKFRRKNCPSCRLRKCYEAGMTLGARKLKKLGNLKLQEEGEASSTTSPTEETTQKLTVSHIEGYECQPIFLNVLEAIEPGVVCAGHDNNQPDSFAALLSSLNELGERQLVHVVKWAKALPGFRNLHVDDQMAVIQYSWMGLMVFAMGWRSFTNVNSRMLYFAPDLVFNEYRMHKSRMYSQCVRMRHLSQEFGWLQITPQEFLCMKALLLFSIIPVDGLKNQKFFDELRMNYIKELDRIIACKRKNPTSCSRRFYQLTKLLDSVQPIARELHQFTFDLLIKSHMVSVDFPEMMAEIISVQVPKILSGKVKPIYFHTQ
T1 sequence (P10275 1-559 partner limits assumed): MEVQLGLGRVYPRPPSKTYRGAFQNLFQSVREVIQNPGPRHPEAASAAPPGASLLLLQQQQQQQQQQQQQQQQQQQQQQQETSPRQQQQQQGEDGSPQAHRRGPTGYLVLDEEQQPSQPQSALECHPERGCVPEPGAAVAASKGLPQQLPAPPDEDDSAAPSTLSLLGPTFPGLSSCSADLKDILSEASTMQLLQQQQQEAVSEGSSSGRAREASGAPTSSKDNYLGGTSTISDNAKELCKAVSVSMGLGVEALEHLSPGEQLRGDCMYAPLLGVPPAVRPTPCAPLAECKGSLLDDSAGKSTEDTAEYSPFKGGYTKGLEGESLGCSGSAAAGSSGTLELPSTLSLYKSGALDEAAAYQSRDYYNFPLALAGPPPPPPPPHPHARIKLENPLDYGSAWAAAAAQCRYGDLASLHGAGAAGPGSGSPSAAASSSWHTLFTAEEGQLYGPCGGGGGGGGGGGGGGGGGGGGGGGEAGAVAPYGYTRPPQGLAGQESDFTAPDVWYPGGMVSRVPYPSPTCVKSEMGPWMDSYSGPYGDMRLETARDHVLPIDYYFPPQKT
Method: 44. […] PC-3 cells were transfected with 30 ng plasmids expressing Gal4(DBD)-AR-DL, VP16 or VP16-ARN combined with 1.5 μg pSG5, pSG5-bSV, -ARA55, or -SRC-1α as indicated. The reporter plasmid pG5-Luc (0.5 μg) and control plasmid pRL-Luc (1 ng) were transfected to every sample. The assay was carried out as described in FIG. 29C.
474. Mouse myoblast cell line (C2C12), human prostate cancer cell lines (PC-3 and DU145), and monkey kidney fibroblast cell line (COS-1) were maintained in Dulbecco's minimum essential medium (DMEM) containing penicillin (25 units/ml), streptomycin ([…]), and 10% fetal bovine serum (FBS). In mammalian two-hybrid assay, transfections were performed using the calcium phosphate precipitation method as described previously (15). Briefly, 1.5-3×10^5 cells were plated on 35-mm dishes for 24 h, and the medium was changed to DMEM containing 10% charcol-dextran stripped FBS (CD-FBS) 2 h before transfection. Cells were transfected with 0.5 μg plasmids expressing Gal4(DBD) and VP-16 fusion proteins as indicated. Gal4 response element controlled Firefly luciferase expression plasmid, pG5-Luc, was used as reporter gene. A Renilla luciferase expression plasmid pRL-SV40 was used as an internal control for transfection efficiency. The total amount of DNA was adjusted to 5 μg with pCMX-VP16 vectors. […]

AR [2] = test: AR transactivation dual-luciferase assay with supervillin (Example 6); assay type: cell-based, human; conditions: COS-1 cells; 10 nM DHT; MMTV-Luc
Method: In AR transactivation activity assays, transfections were performed using SuperFect (Qiagen, Chatsworth, Calif.) following protocols described in manual provided by Qiagen. Briefly, cells were plated on 35 mm dishes and after 24 h were transfected using the SuperFect kit. The total DNA amount was adjusted to 2 μg with pSG5 or pEGFP vectors. The medium was changed to DMEM with 10% CD-FBS 2 h after transfection. After 24 h, the DMEM with 10% CD-FBS was changed again, and the cells were treated with various steroids. Cells were harvested after 24 h for dual-luciferase assay as described in protocol provided by Promega. At least three independent experiments were carried out in each case.
Target sequence in this assay (P10275 with tags, fused parts or gaps DEL79-80/DUP473-473): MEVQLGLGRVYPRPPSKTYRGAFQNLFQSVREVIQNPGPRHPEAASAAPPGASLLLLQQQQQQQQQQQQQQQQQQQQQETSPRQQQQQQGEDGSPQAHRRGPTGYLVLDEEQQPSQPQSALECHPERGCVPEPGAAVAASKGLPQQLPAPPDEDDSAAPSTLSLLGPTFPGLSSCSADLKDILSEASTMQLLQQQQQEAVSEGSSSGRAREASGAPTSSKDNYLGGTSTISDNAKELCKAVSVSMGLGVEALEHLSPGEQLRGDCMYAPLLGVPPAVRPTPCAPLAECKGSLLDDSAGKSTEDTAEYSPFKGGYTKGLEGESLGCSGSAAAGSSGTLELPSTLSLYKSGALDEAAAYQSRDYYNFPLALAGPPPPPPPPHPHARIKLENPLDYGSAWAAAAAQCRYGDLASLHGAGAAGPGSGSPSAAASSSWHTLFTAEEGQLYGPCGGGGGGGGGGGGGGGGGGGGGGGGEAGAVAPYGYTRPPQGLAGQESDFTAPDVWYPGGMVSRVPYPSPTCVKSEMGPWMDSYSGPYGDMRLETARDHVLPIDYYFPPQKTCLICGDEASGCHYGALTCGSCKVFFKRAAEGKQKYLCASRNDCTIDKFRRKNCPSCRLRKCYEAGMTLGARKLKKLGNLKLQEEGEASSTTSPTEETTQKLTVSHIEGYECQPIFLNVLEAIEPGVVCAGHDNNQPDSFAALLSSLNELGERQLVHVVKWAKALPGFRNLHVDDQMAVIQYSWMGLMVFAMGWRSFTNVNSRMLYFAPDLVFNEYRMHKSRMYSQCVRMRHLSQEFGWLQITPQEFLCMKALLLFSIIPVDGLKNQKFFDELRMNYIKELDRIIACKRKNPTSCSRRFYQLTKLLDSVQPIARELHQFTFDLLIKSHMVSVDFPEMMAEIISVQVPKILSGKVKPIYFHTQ

AR [3] = test: AR reporter gene assay with gelsolin (Example 5); assay type: cell-based, human; conditions: for effect on gelsolin enhanced AR activity: PC-3 cells, co-transfected flag-AR peptides
Excerpt: 468. A C-terminal fragment of gelsolin (aa 281-731) was isolated from pACT2 encoding gelsolin, and inserted into pSG5-Gal4 DNA-binding domain (DBD) (constructed by Dr. R. Nakao). AR fragment (aa 36-918) was inserted into pCMX-VP16 (a gift from Dr. D. Chen). For gelsolin expression vector, a full-length cDNA fragment of gelsolin from LKCG, a gift from Dr. D. Kwiatkowski (Northwestern University, Evanston, Ill.), was inserted into pSG5. Dr. M. L. Lu (Harvard Medical School, Boston, Mass.) provided the p (ARE) 4-luciferase (LUC) plasmid. Dr. A. Mizokami (University of Kanazawa, Kanazawa, Japan) provided the pGL3-PSA6.0LUC plasmid. The expression plasmids of AR peptides were constructed by inserting the PCR amplified cDNA fragment of AR DBD into pFlag-CMV (Sigma) and the fragments of AR LBD into pCDNA-flag plasmid. Transfection protocol and reporter gene assay were described in previous report (Ting et al. Proc Natl Acad Sci USA 99, 661-666 (2002)).
Target sequence in this assay (P10275 with tags, fused parts or gaps DEL79-80/DUP473-473): as above

ARA55 mRNA = test: Northern blot of ARA55 mRNA in PC3 cells; assay type: cell-based, human; conditions: 5 ng/ml
Excerpt: 360. The total RNA (25˜g) was fractionated on a 1% formaldehyde-MOPS agarose gel, transferred onto a Hybond-N nylon membrane (Amersham) and prehybridized. A probe corresponding to the 900 bp C-terminus of ARA55 or an ARA54-specific sequence was 32P-labeled in vitro using Random Primed DNA Labeling Kit (Boehringer-Mannheim) according to the manufacture's protocol and hybridized overnight. After washing, the blot was exposed and quantified by Molecular Dynamics PhosphorImager. β-actin was used to monitor the amount of total RNA in each lane.

AR [4] = test: AR transactivation assay, MMTV-CAT reporter, transient transfection (Example 1); assay type: cell-based, human; conditions: PC3 cells; TGF-β 5 ng/ml
Method: Human prostate cancer DU145 or PC3 cells, or human lung carcinoma cells NCI H1299 were grown in Dulbecco's minimal essential medium (DMEM) containing penicillin (25 U/ml), streptomycin (25˜g/ml), and 5% fetal calf serum (FCS). One hour before transfection, the medium was changed to DMEM with 5% charcoal-stripped FCS. […] A β-galactosidase expression plasmid, pCMV-β-gal, was used as an internal control for transfection efficiency.
The medium was changed 24 hr posttransfection and the cells treated with either steroid hormones or hydroxyflutamide, and cultured for an additional 24 hr. Cells were harvested and assayed for CAT activity after the cell lysates were normalized by using β-galactosidaseas an internal control. Chloramphenicol acetyltransferase (CA) activity was visualized by PhosphorImager (Molecular Dynamics) and quantitated by ImageQuant software (Molecular Dynamics).
Target sequence in this assay (P10275 whole entry, the tested form may be a part): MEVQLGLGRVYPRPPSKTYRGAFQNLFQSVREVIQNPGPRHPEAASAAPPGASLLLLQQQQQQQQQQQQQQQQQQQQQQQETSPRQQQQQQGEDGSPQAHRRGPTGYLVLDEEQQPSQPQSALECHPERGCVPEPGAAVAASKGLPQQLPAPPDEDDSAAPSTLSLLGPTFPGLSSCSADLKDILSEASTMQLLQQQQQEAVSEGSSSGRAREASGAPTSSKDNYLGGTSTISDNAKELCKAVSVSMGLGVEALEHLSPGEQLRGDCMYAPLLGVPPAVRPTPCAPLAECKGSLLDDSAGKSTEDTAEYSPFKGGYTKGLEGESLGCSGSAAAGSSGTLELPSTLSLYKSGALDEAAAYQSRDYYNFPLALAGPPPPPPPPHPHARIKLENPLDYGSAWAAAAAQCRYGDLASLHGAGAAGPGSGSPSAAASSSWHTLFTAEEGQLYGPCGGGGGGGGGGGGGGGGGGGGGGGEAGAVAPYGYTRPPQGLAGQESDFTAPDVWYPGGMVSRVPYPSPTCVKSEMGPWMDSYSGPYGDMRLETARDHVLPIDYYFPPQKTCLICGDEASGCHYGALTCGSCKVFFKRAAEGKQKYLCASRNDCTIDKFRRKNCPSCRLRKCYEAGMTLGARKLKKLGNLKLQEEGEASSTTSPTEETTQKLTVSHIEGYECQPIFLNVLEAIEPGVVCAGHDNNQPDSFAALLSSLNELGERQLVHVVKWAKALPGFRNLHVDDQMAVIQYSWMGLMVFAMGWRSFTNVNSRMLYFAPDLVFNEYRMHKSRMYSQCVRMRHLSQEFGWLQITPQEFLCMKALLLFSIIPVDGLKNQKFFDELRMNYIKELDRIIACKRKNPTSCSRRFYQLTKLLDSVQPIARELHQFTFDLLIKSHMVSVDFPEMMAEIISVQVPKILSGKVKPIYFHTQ

LNCaP cell = conditions: 10 nM DHT; cited from earlier work
p27^KIP1 = test: Western blot of p27KIP1 in PC-3(AR2) cells; assay type: cell-based, human; conditions: 10 nM DHT
Method: 41. […] (A) C2C12, COS-1, DU145 and PC-3 cell lines were co-transfected with 30 ng pSG5-AR, 0.5 μg MMTV-Luc, 1 ng pRL-SV40, various amounts of pSG5-bSV as indicated, and adjusted to total amount of 2 μg DNA with pSG5. The assay method was the same as FIG. 2. After measuring the luciferase activity, values relative to lane 1 were calculated. Results are the mean±S.D. of three independent experiments. (B) PC-3 was co-transfected with 30 ng pSG5-AR, 1.5 μg pSG5-bSV, 1 ng pRL-SV40, and 0.5 μg reporter gene as indicated by using SuperFect. […] (C) PC-3(AR2) cell line was transfected with EGFP or EGFP-bSV expressing vector using SuperFect. […] Proteins extracted from cells were loaded on 15% SDS-PAGE and analyzed by western blotting. The intensity of each p27 band was quantified and normalized with control protein which is a non-specific band pick up by the antibody in the same blot. The relative intensities to lane 1 were calculated.
478. Protein samples extracted from the cell were separated on 15% SDS-PAGE and transferred to nitrocellulose membranes. Membranes were incubated 1 h with 5% non-fat milk in TBST at room temperature, followed by the antibodies against p27^(KIP1) (Santa Cruz), followed by AP conjugated goat-antimouse antibody. Blots were developed using the AP developing reagent from Bio-Rad. Band intensity was quantitated by Collage® image analysis software (Fotodyne Inc.).

ARA70 and AR = conditions: LNCaP cells; cited from earlier work

SRC-1: p160 steroid receptor coactivator-1
effect on AR N-C interaction [1]: further enhance

bSV(1010-1792): domain within SV (a.a. 1010-1792), conjugated with EGFP
effect of EGFP-bSV construct on AR transactivation (AR [2]): only a marginal effect

D1: AR peptide D1 (aa 551-600) within AR DBD (DYYFPPQKTCLICGDEASGCHYGALTCGSCKVFFKRAAEGKQKYLCASRN; UniProt P10275 551-600, looked up, fragment)
effect on gelsolin enhanced AR activity (AR [3]): suppressed gelsolin enhanced AR activity

gelsolin: multifunction actin-binding protein, AR coregulator
inhibition of AR activity by HF with added gelsolin (AR [3]; 100 nM HF, normal 10% FCS medium): 40%
enhancement of AR transcription activity (AR [3]; DU145 cells, 10 nM DHT): 2-3 fold
effect on AR transcription activity (AR [3]; DU145 cells, absence of DHT): no significant effect

TGF-β [reference compound]
induction of ARA55 mRNA (ARA55 mRNA): 2 fold
increase of AR transcription activity (AR [4]): 70%

C[C@]12CCC(=O)C[C@@H]1CC[C@@H]1[C@@H]2CC[C@]2(C)[C@@H](O)CC[C@@H]12 [DHT, 5α-dihydrotestosterone, reference compound]
LNCaP cell apoptosis (LNCaP cell): promotes LNCaP cell apoptosis
p27^(KIP1) protein expression (p27^KIP1): induced p27^(KIP1) protein expression

bSV(831-1281): peptide containing a.a. 831-1281 of bSV, conjugated with EGFP
AR transactivation with EGFP-bSV construct (AR [2]): 248 fold

Oc1ccc(C=Cc2cc(O)cc(O)c2)cc1 [resveratrol]
expression of ARA70 and AR transactivation (ARA70 and AR): repress the expression of ARA70 and AR transactivation

HI-2: AR peptide H1-2 (aa 655-695) within AR LBD (TTQKLTVSHIEGYECQPIFLNVLEAIEPGVVCAGHDNNQPD; left off: small tags and cut ends)
effect on gelsolin enhanced AR activity (AR [3]): suppressed gelsolin enhanced AR activity
